Like-named read-outs stand apart in the source and are kept apart here.
Columns and labels:
[1] = biological target: T1, DYRK1A kinase domain (Homo sapiens, UniProt Q13627); assay: MST direct binding assay; details: MST direct binding, 20 nM fluorescent-labelled DYRK1A kinase domain
T1 construct: kinase domain of DYRK1A (126–490) was cloned into pET24a with C-terminal His-tag; made in house; host or cells: E. coli BL21 (DE3) RIL

[2] = biological target: T2, DYRK1A (Homo sapiens, UniProt Q13627); assay: Cook activity assay (ATP regenerative NADH consuming DYRK1A activity assay); type: biochemical; details: Cook assay
T2 construct: kinase domain of DYRK1A (126–490) was cloned into pET24a with C-terminal His-tag; His-tag (C); made in house; host or cells: E. coli BL21 (DE3) RIL

[3] = biological target: T2, DYRK1A; details: cited from earlier work
[4] = test system: NFAT; assay: NFAT luciferase reporter assay in HEK 293 NFAT cell line expressing DYRK1A; type: cell-based; details: various concentrations, 30 min, then ionomycin/PMA 5 h
Experimental: The Renilla luciferase reporter assay was performed in HEK 293 NFAT cell line, constitutively expressing DYRK1A, NFAT and Renilla luciferase under the control of an NFAT-RE promoter. The cells were seeded at 10,000 per well in 96-well white plates (Cellstar, Greiner; Burlington, MA, United States). The following day cells were incubated with the indicated concentration of inhibitor for 30 min, then the medium was changed, and cells were stimulated with 1 μM ionomycin and 10 nM PMA for 5 h. Next, the cell lysate was harvested to measure luciferase activity with Renilla-Glo Luciferase Assay System (Promega, Wisconsin, United States). All experiments were carried out in triplicates.

[5] = test system: INS-1E and MIN6 cells; assay: Ki67 proliferation analysis; type: cell-based, rat, mouse
[6] = test system: INS-1E and MIN6 cells; assay: GSIS and insulin, C-peptide, glucagon staining (flow cytometry, confocal); type: cell-based, rat, mouse; parameters: key to insulin+ / glucagon+ / C-peptide+: ↑: moderate; ↑↑: most potent
Experimental: Cells were cultured in a low glucose medium (5.5 mM) for 24 h. After this medium was changed to lower glucose medium (2 mM) for 2 h and then for high glucose medium (25 mM) for 30 min, media were harvested and/or cells were used for further analysis.
(§1) The presence of insulin, glucagon, C-peptide, Ki67, and DYRK1A was assessed in MIN6 and INS-1E pancreatic cell lines. Before imaging, cells were seeded onto slides at a density of 1 × 10^5 cells and maintained at 37 °C in 95% atmospheric air and 5% CO2 in a humidified atmosphere for 24 h. After washing with fresh medium, cells were incubated with 5 µM inhibitor solution for 24 h. After this time, the solution was replaced with a culture medium for another 48 h. The cells were fixed. Then after washing and permeabilization, they were incubated with specific antibodies diluted in PBS. Next, the cells were incubated for 10 min with Hoechst33342 (Sigma-Aldrich). After incubation, at 37 °C, in the dark, the cells were washed twice with HBSS (Gibco), the slide was transferred to a microscope table, and the cells were visualized under a Zeiss LSM 880 confocal microscope (Carl Zeiss, Jena, Germany) with a 63× immersion objective. Images were analyzed by Zeiss ZEN Software.
(§2) The presence of insulin, glucagon, C-peptide, Ki67 and DYRK1A was assessed in MIN6 and INS-1E pancreatic cell lines. Before analysis, cells were seeded onto slides at a density of 1 × 10^5 cells and maintained at 37 °C in 95% atmospheric air and 5% CO2 in a humidified atmosphere for 24 h. After washing with fresh medium, cells were incubated with 5 µM inhibitor solution for 24 h. After this time, the solution was replaced with a culture medium for another 48 h. The cells were then detached from the plate using trypsin. The cells were fixed. Then after washing and permeabilization, they were incubated with specific antibodies diluted in PBS. Cells were analyzed with BDAccuri flow cytometer and calculated using FlowJo software (Ashland, Oregon-based FlowJo LLC, a subsidiary of Becton Dickinson).

[7] = test system: INS-1E and MIN6 cells; assay: MTT cytotoxicity and cell survival assay, β-cell lines; details: Table 2, Cell lines
[8] = test system: adult human pancreatic beta cells; parameters: method as in PMID 34335466; details: cited from earlier work
[9] = test system: DYRK1A in MIN6 cell line; assay: DYRK1A expression by flow cytometry and confocal imaging; type: cell-based, mouse
Experimental: as §1, §2

[10] = test system: isolated mouse islets; assay: Insulin secretion assay in isolated mouse islets (ELISA, immunostaining); type: cell-based; parameters: key to insulin secretion (ELISA): ↑: moderate; ↑↑: most potent; details: Table 2, Isolated islets
Experimental: (§3) The Insulin ELISA (Ultra Sensitive) was used to quantify insulin levels in control and treated organoids and isolated islets from the mouse pancreas (Crystal Chem, Downers Grove, IL, USA). Islets were homogenized in lysis buffer. Obtained buffer lysates and medium samples (after GSIS) were analyzed for total protein level and subsequently processed following the manufacturer’s protocol.
Mice (male, initially 12 weeks old) were sacrificed by cervical vertebral dislocation. Before starting the incision, their bodies were sprayed with 70% EtOH. A hemostatic clamp was placed on both sides of the small intestine, leaving a small pocket to absorb the collagenase solution into the intestine. Next, 3 mL of cold collagenase solution was introduced into the pancreas through the bile duct. The pancreas was removed from the body and placed in a falcon tube containing 2 mL of collagenase solution. The tube was placed in a water bath at 37 °C. It was incubated for 13 min. At the end of this time, the falcon was shaken vigorously. The collagenase was inactivated with FBS. The sample was centrifuged for 30 s (300× g). This step was repeated 3 times. HBSS was then added to the sample and centrifuged two more times at the same speed as before. After the last centrifugation, HBSS was removed and Percoll (1.045 g/mL) (Sigma-Aldrich) was added. The Percoll solution was left to sediment for 5 min. After this time, the islets were collected from the bottom of the falcon. The step was repeated 3 times. Finally, islets were cultured in RPMI-1640 (Pan Biotech) supplemented with 2 mM L-glutamine (Gibco), 10% fetal bovine serum (FBS) and 1% penicillin/streptomycin and the culture medium was changed daily.
The presence of insulin, C-peptide, glucagon, Pdx-1 and Nkx6.1 was assessed in isolated mouse islets. Islets were fixed in PFA (3.8%) for 30 min, washed with PBS and 0.15% Triton X-100 was added for 1.5 h, then washed again with PBS and samples were transferred to 1% BSA + 0.05% Triton X-100 solution for 3 h. After this time, islets were incubated with primary antibody for 12 h at 4 °C. The secondary antibody was then added for 3 h. Next, the islets were incubated for 10 min with Hoechst33342. After incubation, at 37 °C, in the dark, the samples were washed twice with HBSS, the slide was transferred to a microscope table and the cells were visualized under a Zeiss LSM 880 confocal microscope (Carl Zeiss, Jena, Germany) with a 63× immersion objective. Images were analyzed by Zeiss ZEN Software.

[11] = test system: hiPSC-derived pancreatic organoids; assay: Insulin secretion assay in hiPSC-derived β-cell organoids (ELISA); type: cell-based, human; parameters: key to insulin secretion (ELISA): ↑: moderate; ↑↑: most potent
Experimental: Differentiation of hiPSC into iPSC-derived β-cell islets was carried out following the protocol established by Pellegrini et al. for pluripotent stem cells with slight modifications. A day before differentiation, 800,000 cells were seeded on coated with Geltrex (Gibco) 12 wells plate in Essential 8 medium (Gibco) with Y-27632 10 µM (Abcam). The following culture media were used for differentiation:
M1 medium: MCDB131 (Gibco) + 8 mM D-(þ)-Glucose (Sigma) + 1.23 g/L NaHCO3 (Sigma) + 2% BSA (Sigma) + 0.25 mM Vitamin C (Sigma) + 1% Pen/Strep (Lonza, Basel, Switzerland) + 1% L-glutamine (Lonza);
M2 medium: MCDB131 + 20 mM D-Glucose + 1.754 g/L NaHCO3 + 2% BSA + 0.25 mM Vitamin C + Heparin 10mg/mL (Sigma) + 1% Pen/Strep + 1% L-glutamine. All media were filter-sterilized through a 0.22 µm bottle top filter (Corning, New York, NY, USA). For sequential culture medium changes, small molecules and growth factors were added to the base media immediately before daily exchange. Media switches were as follows: days 0–3: STEMdiff™ Definitive Endoderm Kit ([…], Vancouver, Canada) used following manufacturer instructions; days 4–6: M1 medium + 50 ng/mL KGF (Peprotech, London, UK) + 1:50,000 ITS-X (Invitrogen, Carlsbad, CA, USA); days 7–8: M1 medium + 50 ng/mL KGF + 0.25 µM Sant1 (Sigma) + […] Retinoic acid (RA) (Sigma) + 500 nM PdBU (Millipore, Berlington, MA, United States) + 1:200 ITS-X + 200 nM LDN193189 (only Day 7) (Sigma); days 9–13: M1 medium + 50 ng/mL KGF + 0.25 µM Sant1 + 100 nM RA + 1:200 ITS-X; days 14–18: M2 medium + 0.25 µM Sant1 + 100 nM RA + 1 µM XXI (Millipore) + 10 µM Alk5i II (Selleckchem, Munich, Germany) + 1 µM L-3,30,5-Triiodothyronine (T3) (Sigma) + 20 ng/mL Betacellulin (R&D, Minneapolis, MN, USA) + 1:200 ITS-X.
as §3

[12] = test system: INS-1E cells; assay: MTT cytotoxicity and cell survival assay, INS-1E; type: cell-based, rat; details: 24 h, 0 to 100 μM
[13] = test system: mTOR; details: cited from earlier work
[14] = DYRK1A 0.5 µM, ATP 128 µM, DYRKtide 1 mM

NS(=O)(=O)c1ccc(-c2cnc3[nH]cc(-c4cccnc4)c3c2)cc1 [AC12, 4-(3-(pyridin-3-yl)-1H-pyrrolo[2,3-b]pyridin-5-yl)benzenesulfonamide]
Kd [1]: 380 ± 60 nM
Ki [2, 14]: 100 ± 30 nM
Ki ([2]; phosphorylation of substrate peptide): < 200 nM

COc1ccc(N)cc1-c1cnc(N)c(C(=O)c2cccnc2)n1 [AC22, (3-azanyl-6-(5-azanyl-2-methoxy-phenyl)pyrazin-2-yl)-pyridin-3-yl-methanone]
Kd [1]: 2600 ± 400 nM
IC50 ([3]; DYRK1A, Figure 1, ref Czarna et al. [44]): > 6000 nM
Ki ([3]; Table S1, Cook assay, data previously reported, ref 1 (Czarna et al. 2018)): > 2800 nM
NFAT-controlled luciferase activity [4]: induced NFAT-controlled luciferase activity in a dose-dependent manner
induction of β-cell proliferation (Ki67 labeling of insulin-labeled cells) ([5]; 5 μM, vs untreated cells): most potent in inducing β-cell proliferation
Ki [2, 14]: 1600 ± 400 nM

CN1C(=O)[C@H]2CCC[C@H]2N(C2CCCC2)c2nc(Nc3ccc(C(N)=O)cc3)ncc21 [AC23, 4-(((6aS,9aR)-10-cyclopentyl-5-methyl-6-oxo-5,6,6a,7,8,9,9a,10-octahydrocyclopenta[e]pyrimido[5,4-b][1, 4]diazepin-2-yl)amino)benzamide]
Kd [1]: 12900 ± 2600 nM
NFAT-controlled luciferase activity [4]: induced NFAT-controlled luciferase activity in a dose-dependent manner
Ki [2, 14]: 1200 ± 400 nM

C=CC(=O)Nc1ccc(C(=O)c2sc(Nc3ccc(N4CCN(C)CC4)cc3OC)nc2N)cc1 [AC25, N-(4-((4-azanyl-2-((2-methoxy-4-(4-methylpiperazin-1-yl)phenyl)amino)-1,3-thiazol-5-yl)carbonyl)phenyl)propenamide]
Kd [1]: 1100 ± 600 nM
NFAT-controlled luciferase activity [4]: did not promote NFAT-activity
Ki [2, 14]: 1000 ± 300 nM

C=CC(=O)Nc1cccc(C(=O)c2sc(Nc3ccc(N4CCN(C)CC4)cc3)nc2N)c1 [AC28]
Kd [1]: 27000 ± 17000 nM
NFAT-controlled luciferase activity [4]: did not promote NFAT-activity
Ki [2, 14]: 3000 ± 1000 nM

COc1ccc2c(c1)[nH]c1c(C)nccc12 [Harmine, reference compound]
insulin/C-peptide secretion ([6]; GSIS, compound alone): enhanced insulin secretion and increases C-peptide levels
C-peptide+ ([6]; Table 2, Cell lines): ↑
glucagon+ ([6]; Table 2, Cell lines): ↑↑
insulin+ ([6]; Table 2, Cell lines): ↑
toxicity [7]: no
increase in proliferation [8]: 2–4%
DYRK1A (fluorescence-positive cells, flow cytometry) ([9]; MIN6, 24 h with inhibitor, control 74%): 27.7%
DYRK1A signal in confocal imaging ([9]; MIN6, vs untreated control): reduced
insulin secretion (ELISA) [10]: ↑
insulin release ([11]; GSIS, compared with untreated control cells): markedly increased insulin release
insulin secretion (ELISA) ([11]; Table 2, hiPSC): ↑↑
NFAT-controlled luciferase activity [4]: induced NFAT-controlled luciferase activity in a dose-dependent manner
effect on viability of INS-1E cells [12]: did not show adverse effects

Cc1cccc(-c2n[nH]cc2-c2ccc3ncccc3n2)n1 [RepSox, 2-(3-(6-Methyl-2-pyridinyl)-1H-pyrazol-4-yl)-1,5-naphthyridine, reference compound]
effect on cell proliferation ([5]; TGF-β inhibitor alone): did not affect cell proliferation

Nc1ccc(-c2ccc3ncc4ccc(=O)n(-c5cccc(C(F)(F)F)c5)c4c3c2)cn1 [Torin2, 9-(6-Aminopyridin-3-yl)-1-(3-(trifluoromethyl)phenyl) benzo [h][1, 6] naphthyridin-2 (1 H)-one, reference compound]
potency towards mTOR compared to AC27 [13]: 40 times
NFAT-controlled luciferase activity [4]: did not promote NFAT-activity

Source: article PMC8467532, “DYRK1A Kinase Inhibitors Promote β-Cell Survival and Insulin Homeostasis” (Cells, 2021)
